Measured values as given in patent publication US20190350907A1, “METHODS AND PHARMACEUTICAL COMPOSITIONS FOR REDUCING CD95- MEDIATED CELL MOTILITY” (INSERM (INSTITUT NATIONAL DE LA SANTÉ ET DE LA RECHERCHE …, priority 2017, published 2019).
“Also recorded” adds a separate entry of the source.

Key:
CD95/PLCγ1 interaction = molecular target: T1, CD95/PLCγ1 interaction (Homo sapiens, UniProt P19174); assay: Renilla luciferase protein-fragment complementation assay (PCA), CD95-CID/PLCγ1-SH3; format: cell-based; settings: result in words
T1 construct: The PLCγ1-SH3 domain (aa 790-851) (C); expressed in transfected cells; host or cells: HEK293T
T1 sequence (P19174 790-851): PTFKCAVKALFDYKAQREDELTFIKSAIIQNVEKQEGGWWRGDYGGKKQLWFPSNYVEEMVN
Protocol: FIG. 1. […] A. Schematic representation of the protein-fragment complementation assay used with CD95-CID or -DD fused to F2 and PLCγ1-SH3 or FADD-DD fused to F1 to identify inhibitors from the Prestwick library. The Renilla luciferase enzyme was divided into amino-terminal and carboxy-terminal fragments (yellow domains) and fused to the indicated domains. B. Compounds from the Prestwick library were tested against CD95/PLCγ1 or CD95/FADD PCA. […] Inhibition of CD95/FADD interaction is also assessed.
Light emission indicates refolding of the luciferase and reconstitution of enzyme activity through protein/protein interactions. […] Data represent means±SD of three independent experiments. […] Then, the indicated peptides fused with or without the cell-penetrating domain TAT were incubated at the indicated concentrations for 4 hrs and luminescence was assessed. Data represent means±SD of three independent experiments. […].
HEK293T cells were electroporated with 5 μg of DNA using BTM-830 electroporation generator (BTX Instrument Division, Harvard Apparatus) with 10 μg of DNA. Transfected cells were cultured for 24 hrs prior to protein complementation assay analyses as previously described (17). Briefly, transfected cells (10^6) were washed, resuspended in 100 μl PBS and deposited in OptiPlate-96 (PerkinElmer, Waltham, Mass., USA). Coelenterazine-h (5 μM, Sigma) was injected to each well and renilla luciferase activity was monitored for the first 10 seconds using Infinite200Pro (Tecan, Männedorf, Switzerland).
A peptide consisting of the cell-penetrating domain of TAT fused to CID (TAT-CID) binds the SH3 domain of PLCγ1 and thereby, prevents PLCγ1/CD95 interaction and the subsequent induction of the Ca^2+ response (16). […] Briefly, the Renilla luciferase enzyme was divided into two fragments (F1 and F2 fragments). […] Interaction of CD95 with PLCγ1 or FADD allows the reconstitution of RLuc and subsequent light emission (FIG. 1A). The chemical Prestwick library was screened against these PCAs (FIG. 1B). […] These molecules are designated CID inhibitors or CIDINH.

activated PBLs = assay: CD95-mediated cell migration / endothelial transmigration of activated PBLs (Boyden chamber); format: cell-based, human; settings: result in words
Protocol: FIG. 3. Drugs inhibit CD95-mediated Ca′ response and cell migration. A. Activated PBLs were loaded with FuraPE3-AM (1 μM) and pre-treated for 1 h with non-toxic concentrations of indicated compounds. T-cells were then stimulated with cl-CD95L (100 ng/mL; arrow). Ratio values (R) were normalized to pre-stimulated values (R0) to yield R/R0 values. Data represent means±the SD. B. Left panel: using Boyden chamber assay, cell migration of parental H9 cells and their counterpart lacking CD95 (CD95-KO) was assessed. Right panel: activated PBLs were pre-incubated in the presence or absence of the indicated drugs for 1 hour using non-toxic concentration and the CD95-mediated cell migration was assessed by Boyden chambers. C. Th17 cells were sorted from blood of healthy donors (peripheral blood mononuclear cell). FACS analyses showing the efficiency of Th17 (CCR6^+ CXCR3^−) cell sorting from healthy donors PBMCs. D. Th17 cells were pre-incubated in the presence or absence of the indicated drugs for 1 hour using non-toxic concentration and cell migration was assessed by Boyden chambers. After membrane hydration of Boyden chambers (Millipore, Molsheim, France) containing 8 μm pore membranes, 10^5 cells were added to the top chamber. The bottom chamber was filled with low serum (1%)-containing medium in the presence or absence of cl-CD95L (100 ng/ml). Cells were incubated for 24 h. To quantify invasion, cells were fixed with methanol and stained with Giemsa. Stained cells were then removed from the top-side of the membrane using a cotton-tipped swab and five representative pictures for each insert were taken of the invading cells from the reverse side. For each experiment, invading cells were lysed and absorbance at 560 nm was measured. Membranes (3 μm pore size) of a Boyden chamber were hydrated in sterile D-PBS (Millipore, Molsheim, France). Thereafter, activated T-lymphocytes (10^6) were added to the top chamber on a confluent monolayer of HUVEC in a low serum (1%)-containing medium. The bottom chamber was filled with low serum (1%)-containing medium in presence or absence of 100 ng/ml of cl-CD95L. In experiments using human sera, 500 μl of serum from either healthy donors or SLE patients was added to the lower chamber. Cells were cultured for 24 h at 37° C. in a 5% CO2, humidified incubator. Transmigrated cells were counted in the lower reservoir by flow cytometry using a standard of 2.5×10^4 fluorescent beads (Flow-count, Beckman Coulter).

SMILES | effect on interaction of CD95 with PLCγ1 (CD95/PLCγ1 interaction) | effect on endothelial transmigration of PBLs (activated PBLs)
O=C(O)c1cc(-c2ccc(F)cc2F)ccc1O [diflunisal, 5-(2,4-difluorophenyl)-2-hydroxybenzoic acid] | efficiently prevented | inhibited
CC(C)c1nc(CN(C)C(=O)N[C@H](C(=O)N[C@@H](Cc2ccccc2)C[C@H](O)[C@H](Cc2ccccc2)NC(=O)OCc2cncs2)C(C)C)cs1 [ritonavir, 1,3-thiazol-5-ylmethyl N-[(2S,3S,5S)-3-hydroxy-5-[[(2S)-3-methyl-2-[[methyl-[(2-propan-2-yl-1,3-thiazol-4-yl)methyl]carbamoyl]amino]butanoyl]amino]-1,6-diphenylhexan-2-yl]carbamate] | efficiently prevented; also recorded: prevents the PLCγ1 recruitment | inhibited
